Experimental data from patent publication US12209071B2, “Triazine derivatives for treating diseases relating to neurotrophins” (AlzeCure Pharma AB, priority 2018, dated 2025).

Assays:
TrkA = biological target: T1, TrkA (Homo sapiens, UniProt P04629); test: Enzyme Fragment Complementation cell-based assay, TrkA; settings: U2OS-cells over-expressing TrkA; ligand 10 ng/mL; 3 hours incubation
T1 construct: expressed in transfected cells; host or cells: U2OS
Text: (§1) A high throughput cell-based screen has been used to identify positive modulators of TrkA, TrkB and TrkC. The screen involves the use of cell-based assay overexpressing TrkA, TrkB or TrkC. The purpose of the assay is to identify compounds that modulate neurotrophin signalling (Forsell et al 2012). The assay can be used in inhibitor mode using a high concentration of ligand, in modulator mode using an intermediate concentration and in agonist mode using a low concentration of ligand.
(§2) The assay uses Enzyme Fragment Complementation (EFC) technique, which is a proximity-based assay. Briefly, cells used in this assay over-express two fusion proteins, i.e. the receptor, which can be either one of TrkA, TrkB, TrkC, IGF1R or FGFR1, fused to a small peptide of beta-galactosidase and an adaptor protein, i.e. SHC1 (or any other Trk-adaptor protein) fused to the major part of beta-galactosidase. […] The proximity between the small activating peptide on the receptor and the major part of beta-galactosidase on the adaptor protein leads to an active beta-galactosidase enzyme. The activation of the receptor is quantified by measuring the amount of active beta-galactosidase by its conversion of a non-luminescent substrate into a luminescent product.
(§3) U2OS-cells, over-expressing TrkA or TrkB or TrkC, are plated in 96- or 384-well plates and incubated overnight. Alternatively, cryopreserved HEK293-cells expressing IGFR1 or cryopreserved U2OS-cells expressing FGFR1 were plated in 96- or 384-well plates. On the following day, test compound was pre-mixed with ligand (NGF, BDNF, NT-3, IGF-1 or basic fibroblast growth factor (bFGF(FGF-2))) and the ligand-compound mixture is then added to the cells to yield a final ligand concentration of 10 ng/mL. After 3 hours of incubation at room temperature, the incubation is stopped by the addition of a beta-galactosidase substrate mixture containing detergents. The substrate mixture is incubated for 60 minutes at ambient temperature. The luminescence is thereafter read by the use of a plate reader.

TrkB = biological target: T2, TrkB (Homo sapiens, UniProt Q16620); test: Enzyme Fragment Complementation cell-based assay, TrkB; settings: U2OS-cells over-expressing TrkB; ligand 10 ng/mL; 3 hours incubation
T2 construct: expressed in transfected cells; host or cells: U2OS
Text: as §1, §2, §3

TrkC = biological target: T3, TrkC (Homo sapiens, UniProt Q16288); test: Enzyme Fragment Complementation cell-based assay, TrkC; settings: U2OS-cells over-expressing TrkC; ligand 10 ng/mL; 3 hours incubation
T3 construct: expressed in transfected cells; host or cells: U2OS
Text: as §1, §2, §3

T1 sequence (P04629 33-796): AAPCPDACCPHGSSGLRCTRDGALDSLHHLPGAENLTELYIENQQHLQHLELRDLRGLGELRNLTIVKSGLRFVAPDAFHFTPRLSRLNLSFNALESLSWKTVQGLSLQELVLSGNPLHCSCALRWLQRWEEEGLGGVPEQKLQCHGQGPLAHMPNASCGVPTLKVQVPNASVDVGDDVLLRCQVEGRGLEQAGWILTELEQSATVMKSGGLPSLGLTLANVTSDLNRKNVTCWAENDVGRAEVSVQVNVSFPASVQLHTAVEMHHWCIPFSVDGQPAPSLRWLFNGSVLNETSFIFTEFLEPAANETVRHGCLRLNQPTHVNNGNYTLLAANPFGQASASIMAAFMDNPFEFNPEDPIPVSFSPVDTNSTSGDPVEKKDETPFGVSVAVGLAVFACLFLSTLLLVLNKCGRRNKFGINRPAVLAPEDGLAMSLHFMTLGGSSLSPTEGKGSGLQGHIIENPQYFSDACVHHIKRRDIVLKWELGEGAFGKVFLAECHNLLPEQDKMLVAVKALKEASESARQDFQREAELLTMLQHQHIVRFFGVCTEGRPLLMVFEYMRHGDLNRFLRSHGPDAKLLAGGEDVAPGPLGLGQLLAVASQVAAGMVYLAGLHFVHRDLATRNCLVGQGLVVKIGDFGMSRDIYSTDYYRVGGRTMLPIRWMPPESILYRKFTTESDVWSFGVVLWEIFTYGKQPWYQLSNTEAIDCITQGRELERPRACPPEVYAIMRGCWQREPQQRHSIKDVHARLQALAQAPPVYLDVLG
T3 sequence (Q16288 32-839): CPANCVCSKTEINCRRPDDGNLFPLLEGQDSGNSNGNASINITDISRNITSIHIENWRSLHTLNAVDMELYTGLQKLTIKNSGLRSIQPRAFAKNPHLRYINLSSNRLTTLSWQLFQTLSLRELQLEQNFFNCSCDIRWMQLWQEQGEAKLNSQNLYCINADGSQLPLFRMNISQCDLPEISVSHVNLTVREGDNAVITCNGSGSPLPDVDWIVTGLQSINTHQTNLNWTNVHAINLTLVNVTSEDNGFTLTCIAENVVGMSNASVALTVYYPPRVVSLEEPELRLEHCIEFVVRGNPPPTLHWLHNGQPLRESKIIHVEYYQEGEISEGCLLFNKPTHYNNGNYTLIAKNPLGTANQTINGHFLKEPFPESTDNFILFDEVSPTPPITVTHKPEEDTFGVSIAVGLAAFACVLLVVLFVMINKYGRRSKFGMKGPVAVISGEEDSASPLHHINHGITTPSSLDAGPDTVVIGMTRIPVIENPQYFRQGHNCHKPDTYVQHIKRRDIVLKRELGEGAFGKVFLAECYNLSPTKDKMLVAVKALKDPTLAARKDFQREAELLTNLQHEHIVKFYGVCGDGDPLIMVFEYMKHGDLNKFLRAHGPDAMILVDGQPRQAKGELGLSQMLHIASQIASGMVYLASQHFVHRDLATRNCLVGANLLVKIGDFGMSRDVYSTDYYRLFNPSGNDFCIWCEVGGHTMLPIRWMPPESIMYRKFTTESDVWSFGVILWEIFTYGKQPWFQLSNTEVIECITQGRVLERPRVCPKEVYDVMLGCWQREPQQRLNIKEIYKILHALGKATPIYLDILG
T2 sequence (Q16620 32-822): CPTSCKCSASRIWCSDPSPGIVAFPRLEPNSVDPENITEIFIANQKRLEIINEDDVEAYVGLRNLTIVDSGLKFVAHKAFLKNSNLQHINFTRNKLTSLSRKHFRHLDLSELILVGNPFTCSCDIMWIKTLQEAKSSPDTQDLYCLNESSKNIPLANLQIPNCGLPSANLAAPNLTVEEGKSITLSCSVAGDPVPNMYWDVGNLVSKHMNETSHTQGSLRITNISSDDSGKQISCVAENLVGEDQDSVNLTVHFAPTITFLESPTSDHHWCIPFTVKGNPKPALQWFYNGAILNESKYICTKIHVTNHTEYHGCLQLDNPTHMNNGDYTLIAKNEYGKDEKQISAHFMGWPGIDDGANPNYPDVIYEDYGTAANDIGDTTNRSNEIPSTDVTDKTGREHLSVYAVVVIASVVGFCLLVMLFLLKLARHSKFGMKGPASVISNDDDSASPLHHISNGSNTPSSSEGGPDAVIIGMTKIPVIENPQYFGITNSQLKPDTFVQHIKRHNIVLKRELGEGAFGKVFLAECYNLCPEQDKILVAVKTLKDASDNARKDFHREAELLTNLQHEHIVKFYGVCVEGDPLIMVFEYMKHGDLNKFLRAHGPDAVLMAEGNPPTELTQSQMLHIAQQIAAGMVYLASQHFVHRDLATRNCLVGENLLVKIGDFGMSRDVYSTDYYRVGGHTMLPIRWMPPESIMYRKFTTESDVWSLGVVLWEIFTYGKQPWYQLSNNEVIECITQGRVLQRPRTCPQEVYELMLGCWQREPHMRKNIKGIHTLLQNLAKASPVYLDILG

Row | EC50 (TrkA) | EC50 (TrkB) | EC50 (TrkC) | Compound
1 | 590 nM | 650 nM | 1100 nM | Cn1c(=O)[nH]c(=O)n(-c2ccc(Oc3ccccc3)c(OC3CCCC3)c2)c1=O [Example 15, 1-[3-(cyclopentyloxy)-4-phenoxyphenyl]-3-methyl-1,3,5-triazinane-2,4,6-trione]
2 | 390 nM | 370 nM | 510 nM | CCOc1cc(-n2c(=O)[nH]c(=O)n(-c3ccccc3)c2=O)ccc1Oc1ccccc1 [Example 16, 1-(3-ethoxy-4-phenoxyphenyl)-3-phenyl-1,3,5-triazinane-2,4,6-trione]
3 | 780 nM | 750 nM | 480 nM | O=c1[nH]c(=O)n(-c2ccc(Oc3ccccc3)c(OC3CCOC3)c2)c(=O)n1-c1ccccc1 (stereo not drawn) [Example 17, 1-[3-(oxolan-3-yloxy)-4-phenoxyphenyl]-3-phenyl-1,3,5-triazinane-2,4,6-trione]
4 | 6900 nM | 8900 nM | 3200 nM | O=c1[nH]c(=O)n(-c2ccc(Nc3ccccc3)cc2)c(=O)n1-c1ccccc1 [Example 20, 1-phenyl-3-[4-(phenylamino)phenyl]-1,3,5-triazinane-2,4,6-trione]
5 | 2100 nM | 2300 nM | 1200 nM | CCOc1cc(-n2c(=O)[nH]c(=O)n(C)c2=O)ccc1Oc1ccccc1 [Example 21, 1-(3-ethoxy-4-phenoxyphenyl)-3-methyl-1,3,5-triazinane-2,4,6-trione]
6 | 1300 nM | 3600 nM | 3000 nM | Cn1c(=O)[nH]c(=O)n(-c2ccc(Oc3ccccc3)c(OC3CCOC3)c2)c1=O (stereo not drawn) [Example 22, 1-methyl-3-[3-(oxolan-3-yloxy)-4-phenoxyphenyl]-1,3,5-triazinane-2,4,6-trione]
7 | 1000 nM | 920 nM | 770 nM | O=c1[nH]c(=O)n(-c2ccc(Oc3ccccc3)c(OC3CCCC3)c2)c(=O)n1-c1ccccc1 [Example 23, 1-[3-(cyclopentyloxy)-4-phenoxyphenyl]-3-phenyl-1,3,5-triazinane-2,4,6-trione]
8 | 500 nM | 610 nM | 220 nM | Cn1c(=O)[nH]c(=O)n(-c2ccc(Oc3ccccc3)c(OCC3COC3)c2)c1=O [Example 24, 1-methyl-3-[3-(oxetan-3-ylmethoxy)-4-phenoxyphenyl]-1,3,5-triazinane-2,4,6-trione]
9 | 390 nM | – | 40 nM | Cc1cn(-c2ccccc2)c2ccc(-n3c(=O)[nH]c(=O)n(C)c3=O)cc12 [Example 37, 1-methyl-3-(3-methyl-1-phenyl-1H-indol-5-yl)-1,3,5-triazinane-2,4,6-trione]
10 | 580 nM | 540 nM | – | COC(=O)c1cc(-n2c(=O)[nH]c(=O)n(-c3ccccc3)c2=O)ccc1Oc1ccccc1 [Example 74, methyl 2-phenoxy-5-(2,4,6-trioxo-3-phenyl-1,3,5-triazinan-1-yl)benzoate]
11 | 1170 nM | 1800 nM | – | O=c1[nH]c(=O)n(-c2ccc(Oc3ccccc3)c(CO)c2)c(=O)n1-c1ccccc1 [Example 75, 1-[3-(hydroxymethyl)-4-phenoxyphenyl]-3-phenyl-1,3,5-triazinane-2,4,6-trione]
12 | 33000 nM | 4530 nM | – | CN(C)C(=O)Cc1cc(-n2c(=O)[nH]c(=O)n(-c3ccccc3)c2=O)ccc1Oc1ccccc1 [Example 76, 1-{3-[2-(Dimethylamino)-2-oxoethyl]-4-phenoxyphenyl}-3-phenyl-1,3,5-triazinane-2,4,6-trione]
13 | 430 nM | 360 nM | – | CN(C)C(=O)COc1cc(-n2c(=O)[nH]c(=O)n(-c3ccccc3)c2=O)ccc1Oc1ccccc1 [Example 77, 1-{3-[2-(Dimethylamino)-2-oxoethoxy]-4-phenoxyphenyl}-3-phenyl-1,3,5-triazinane-2,4,6-trione]
14 | 3510 nM | 3830 nM | – | Cc1ccc(-n2c(=O)[nH]c(=O)n(-c3cnc(Oc4ccccc4)c(C)c3)c2=O)cc1 [Example 78, 1-(5-Methyl-6-phenoxypyridin-3-yl)-3-(p-tolyl)-1,3,5-triazinane-2,4,6-trione]
